Experimental data from patent US20230183243A1, “HETEROARYL DERIVATIVES AND PHARMACEUTICAL COMPOSITION COMPRISING SAME AS ACTIVE INGREDIENT” (VORONOI INC., priority 2019, published 2023).

Key:
[1] = biological target: T1, JNK2 (Homo sapiens, UniProt P45984); experiment: ScanMAX Kinase panel (DiscoverX); assay type: binding
T1 construct: purchased DiscoverX Corp. (ScanMAX Kinase panel, commissioned)
Description: (§1) Specifically, the enzyme (kinase) selectivity of the compound of Example 7 selected from the Example compounds of the present invention was measured by commissioning DiscoverX Corp., and an experiment was performed using a panel for ScanMAX™ Kinase analysis.
(§2) In this case, the concentration of a drug treated with the enzyme was set at 1 μM in DMSO, and percent control (% control) was defined in the same manner as in the following Expression 1.
(§3) (Example compound−Positive control)/(Negative control−Positive control)×100 [Expression 1]
(§4) Wherein the positive control represents a compound having a percent control of 0%, and the negative control represents a compound having a percent control of 100% in DMSO. For the enzyme selectivity of the present invention, the compound was also judged to have activity against the corresponding enzyme when the percent control for each of the enzymes was <30% (i.e., less than 30%).
(§5) Further, to evaluate the inhibitory activity of the compound according to the present invention against more enzymes, an experiment was performed as follows. Specifically, the enzyme (kinase) selectivity of the compound of Example 64 selected from the Example compounds of the present invention was measured by commissioning DiscoverX Corp., and an experiment was performed using a panel for ScanMAX™ Kinase analysis. In this case, the concentration of a drug treated with the enzyme was set at 1 μM in DMSO, and the percent control (% control) were defined in the same manner as in the following Expression 1.
as §4, with “<35%” for “<30%”, “35%).” for “30%).”

[2] = biological target: T2, ABL1(F317L)-nonphosphorylated (Homo sapiens, UniProt P00519, F317L); experiment: ScanMAX Kinase panel (DiscoverX); assay type: binding; details: read-out: % Cont @ 1 μM
T2 construct: purchased DiscoverX Corp. (ScanMAX Kinase panel, commissioned)
Description: as §1, §2, §3, §4, §5
as §4, with “<35%” for “<30%”, “35%).” for “30%).”

[3] = biological target: T3, LRRK2(G2019S) (Homo sapiens, UniProt Q5S007, G2019S); experiment: ScanMAX Kinase panel (DiscoverX); assay type: binding; details: read-out: % Cont @ 1 μM
T3 construct: purchased DiscoverX Corp. (ScanMAX Kinase panel, commissioned)
Description: as §1, §2, §3, §4, §5
as §4, with “<35%” for “<30%”, “35%).” for “30%).”

[4] = biological target: T4, MAPKAPK2 (Homo sapiens, UniProt P49137); experiment: ScanMAX Kinase panel (DiscoverX); assay type: binding; details: read-out: % Cont @ 1 μM
T4 construct: purchased DiscoverX Corp. (ScanMAX Kinase panel, commissioned)
Description: as §1, §2, §3, §4, §5
as §4, with “<35%” for “<30%”, “35%).” for “30%).”

[5] = biological target: T5, JNK1 (Homo sapiens, UniProt P45983); experiment: ScanMAX Kinase panel (DiscoverX); assay type: binding
T5 construct: purchased DiscoverX Corp. (ScanMAX Kinase panel, commissioned)
Description: as §1, §2, §3, §4, §5
as §4, with “<35%” for “<30%”, “35%).” for “30%).”

[6] = biological target: T6, RIPK5 (Homo sapiens, UniProt Q6XUX3); experiment: ScanMAX Kinase panel (DiscoverX); assay type: binding; details: read-out: % Cont @ 1 μM
T6 construct: purchased DiscoverX Corp. (ScanMAX Kinase panel, commissioned)
Description: as §1, §2, §3, §4, §5
as §4, with “<35%” for “<30%”, “35%).” for “30%).”

[7] = biological target: T7, JNK3 (Homo sapiens, UniProt P53779); experiment: ScanMAX Kinase panel (DiscoverX); assay type: binding
T7 construct: purchased DiscoverX Corp. (ScanMAX Kinase panel, commissioned)
Description: as §1, §2, §3, §4, §5
as §4, with “<35%” for “<30%”, “35%).” for “30%).”

[8] = biological target: T8, SRPK3 (Homo sapiens, UniProt Q9UPE1); experiment: ScanMAX Kinase panel (DiscoverX); assay type: binding; details: read-out: % Cont @ 1 μM
T8 construct: purchased DiscoverX Corp. (ScanMAX Kinase panel, commissioned)
Description: as §1, §2, §3, §4, §5
as §4, with “<35%” for “<30%”, “35%).” for “30%).”

[9] = biological target: T9, GRK4 (Homo sapiens, UniProt P32298); experiment: ScanMAX Kinase panel (DiscoverX); assay type: binding; details: read-out: % Cont @ 1 μM
T9 construct: purchased DiscoverX Corp. (ScanMAX Kinase panel, commissioned)
Description: as §1, §2, §3, §4, §5
as §4, with “<35%” for “<30%”, “35%).” for “30%).”

[10] = system: MDA-MB-231 cells; experiment: Inhibition of proliferation of triple-negative breast cancer cells, CellTiter-Glo; assay type: cell-based; details: Homo sapiens, 120 h; MDA-MB-231, cultured for 5 days
Method in brief: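 MDA-MB-231 cells pre-cultured 24 h (5% CO2, 37 °C), then exposed to compound for 5 days at 12 three-fold dilutions, final 10 μM to 0.05 nM. Viability read by CellTiter-Glo luminescence after 10 min at 37 °C; growth inhibition calculated relative to untreated solvent-control cells.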

T4 sequence (P49137 whole entry): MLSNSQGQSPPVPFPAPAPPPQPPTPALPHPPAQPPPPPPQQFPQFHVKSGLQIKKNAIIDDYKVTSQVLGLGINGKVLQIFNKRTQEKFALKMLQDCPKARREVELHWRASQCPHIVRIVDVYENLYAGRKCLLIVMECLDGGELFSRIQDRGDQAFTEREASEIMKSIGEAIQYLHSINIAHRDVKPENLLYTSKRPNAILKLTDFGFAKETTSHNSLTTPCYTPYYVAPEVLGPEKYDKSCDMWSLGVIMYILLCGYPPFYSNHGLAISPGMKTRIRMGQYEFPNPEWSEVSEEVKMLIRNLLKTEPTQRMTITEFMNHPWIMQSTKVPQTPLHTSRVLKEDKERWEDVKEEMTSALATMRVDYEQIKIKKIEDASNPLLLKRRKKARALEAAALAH
T2 sequence (P00519 whole entry F317L): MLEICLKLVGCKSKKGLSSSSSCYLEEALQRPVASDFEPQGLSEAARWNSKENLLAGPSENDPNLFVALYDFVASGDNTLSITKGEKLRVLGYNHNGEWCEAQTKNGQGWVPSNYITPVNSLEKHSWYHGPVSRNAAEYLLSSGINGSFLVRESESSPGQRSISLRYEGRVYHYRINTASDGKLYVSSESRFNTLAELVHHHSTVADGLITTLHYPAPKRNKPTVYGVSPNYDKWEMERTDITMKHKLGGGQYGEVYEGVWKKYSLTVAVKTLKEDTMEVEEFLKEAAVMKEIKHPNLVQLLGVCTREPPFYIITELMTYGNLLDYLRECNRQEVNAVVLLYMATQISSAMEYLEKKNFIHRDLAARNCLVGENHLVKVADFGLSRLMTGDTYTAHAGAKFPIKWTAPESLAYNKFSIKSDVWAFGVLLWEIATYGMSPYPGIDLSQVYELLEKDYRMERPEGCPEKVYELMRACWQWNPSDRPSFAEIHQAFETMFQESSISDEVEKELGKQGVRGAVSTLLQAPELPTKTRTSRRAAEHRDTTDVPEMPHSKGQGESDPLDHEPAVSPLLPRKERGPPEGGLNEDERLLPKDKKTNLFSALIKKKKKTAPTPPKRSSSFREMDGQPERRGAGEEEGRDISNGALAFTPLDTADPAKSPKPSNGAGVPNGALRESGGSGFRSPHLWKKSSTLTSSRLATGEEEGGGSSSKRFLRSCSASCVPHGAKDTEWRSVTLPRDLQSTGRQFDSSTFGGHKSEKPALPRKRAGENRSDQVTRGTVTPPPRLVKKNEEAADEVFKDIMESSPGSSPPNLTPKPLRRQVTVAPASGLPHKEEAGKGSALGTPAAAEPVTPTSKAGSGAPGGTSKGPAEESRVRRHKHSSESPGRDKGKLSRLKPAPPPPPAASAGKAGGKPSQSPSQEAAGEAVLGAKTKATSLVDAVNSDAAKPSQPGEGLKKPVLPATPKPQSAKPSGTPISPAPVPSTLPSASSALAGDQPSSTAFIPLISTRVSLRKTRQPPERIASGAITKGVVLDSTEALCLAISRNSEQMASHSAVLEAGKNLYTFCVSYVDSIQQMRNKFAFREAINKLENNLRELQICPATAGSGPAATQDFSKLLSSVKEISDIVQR
T8 sequence (Q9UPE1 whole entry): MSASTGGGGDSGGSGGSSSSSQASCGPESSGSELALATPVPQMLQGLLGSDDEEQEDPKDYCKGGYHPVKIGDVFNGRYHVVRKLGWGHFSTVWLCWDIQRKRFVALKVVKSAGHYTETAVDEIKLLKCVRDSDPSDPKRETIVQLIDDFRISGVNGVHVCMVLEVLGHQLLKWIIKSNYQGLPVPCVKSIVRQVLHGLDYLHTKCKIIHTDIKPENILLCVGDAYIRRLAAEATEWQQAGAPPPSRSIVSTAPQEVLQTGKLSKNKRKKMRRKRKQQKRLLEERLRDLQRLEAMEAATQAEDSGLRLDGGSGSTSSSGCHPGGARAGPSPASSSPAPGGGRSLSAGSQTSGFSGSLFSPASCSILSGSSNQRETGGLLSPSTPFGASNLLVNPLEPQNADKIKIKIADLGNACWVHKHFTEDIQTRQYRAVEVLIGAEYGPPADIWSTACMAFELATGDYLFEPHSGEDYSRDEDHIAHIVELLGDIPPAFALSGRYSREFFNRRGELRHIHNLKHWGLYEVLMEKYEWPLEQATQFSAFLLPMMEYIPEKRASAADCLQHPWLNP
T1 sequence (P45984 whole entry): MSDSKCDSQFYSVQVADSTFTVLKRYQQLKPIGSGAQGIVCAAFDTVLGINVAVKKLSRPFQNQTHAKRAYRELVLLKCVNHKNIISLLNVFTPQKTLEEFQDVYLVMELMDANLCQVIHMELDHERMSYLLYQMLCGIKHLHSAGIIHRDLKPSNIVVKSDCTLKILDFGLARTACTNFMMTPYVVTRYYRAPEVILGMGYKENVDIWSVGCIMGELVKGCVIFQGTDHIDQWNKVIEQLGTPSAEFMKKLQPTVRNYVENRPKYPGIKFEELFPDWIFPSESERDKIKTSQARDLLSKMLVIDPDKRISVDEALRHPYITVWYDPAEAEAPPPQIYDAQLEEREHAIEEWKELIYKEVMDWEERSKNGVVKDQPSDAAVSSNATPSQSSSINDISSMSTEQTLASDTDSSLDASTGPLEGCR
T7 sequence (P53779 whole entry): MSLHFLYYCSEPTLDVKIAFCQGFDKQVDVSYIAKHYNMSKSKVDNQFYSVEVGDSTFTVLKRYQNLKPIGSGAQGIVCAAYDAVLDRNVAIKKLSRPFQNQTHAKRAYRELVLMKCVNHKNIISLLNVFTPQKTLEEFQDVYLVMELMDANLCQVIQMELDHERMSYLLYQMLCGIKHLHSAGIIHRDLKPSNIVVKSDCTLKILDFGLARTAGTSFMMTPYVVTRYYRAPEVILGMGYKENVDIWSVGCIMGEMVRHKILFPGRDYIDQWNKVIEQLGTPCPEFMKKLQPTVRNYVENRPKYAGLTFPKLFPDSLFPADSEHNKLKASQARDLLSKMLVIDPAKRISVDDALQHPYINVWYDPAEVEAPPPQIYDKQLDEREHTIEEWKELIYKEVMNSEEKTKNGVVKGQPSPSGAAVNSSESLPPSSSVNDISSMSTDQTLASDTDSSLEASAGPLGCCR
T6 sequence (Q6XUX3 whole entry): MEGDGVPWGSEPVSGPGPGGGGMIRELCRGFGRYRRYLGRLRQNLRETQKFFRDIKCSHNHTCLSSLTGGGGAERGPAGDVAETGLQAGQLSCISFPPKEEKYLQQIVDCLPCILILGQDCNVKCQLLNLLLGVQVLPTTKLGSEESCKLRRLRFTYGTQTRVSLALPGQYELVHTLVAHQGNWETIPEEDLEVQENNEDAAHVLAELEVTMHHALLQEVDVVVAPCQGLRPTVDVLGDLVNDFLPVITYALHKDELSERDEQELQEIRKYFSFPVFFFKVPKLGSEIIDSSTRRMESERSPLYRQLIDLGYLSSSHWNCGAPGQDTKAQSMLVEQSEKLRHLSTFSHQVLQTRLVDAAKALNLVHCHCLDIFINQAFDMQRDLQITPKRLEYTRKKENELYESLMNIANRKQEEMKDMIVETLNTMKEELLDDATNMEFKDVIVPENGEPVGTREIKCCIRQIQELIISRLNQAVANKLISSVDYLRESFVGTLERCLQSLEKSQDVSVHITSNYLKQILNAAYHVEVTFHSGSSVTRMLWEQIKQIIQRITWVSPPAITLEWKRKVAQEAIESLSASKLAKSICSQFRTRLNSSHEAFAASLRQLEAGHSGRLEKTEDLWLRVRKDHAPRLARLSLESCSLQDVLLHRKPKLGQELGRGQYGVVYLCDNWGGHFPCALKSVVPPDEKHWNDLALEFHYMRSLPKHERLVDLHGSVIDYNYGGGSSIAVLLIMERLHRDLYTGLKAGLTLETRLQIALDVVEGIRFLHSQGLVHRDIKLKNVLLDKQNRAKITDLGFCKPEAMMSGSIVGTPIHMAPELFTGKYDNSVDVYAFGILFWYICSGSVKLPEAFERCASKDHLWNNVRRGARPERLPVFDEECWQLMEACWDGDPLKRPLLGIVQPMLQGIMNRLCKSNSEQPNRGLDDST
T9 sequence (P32298 whole entry): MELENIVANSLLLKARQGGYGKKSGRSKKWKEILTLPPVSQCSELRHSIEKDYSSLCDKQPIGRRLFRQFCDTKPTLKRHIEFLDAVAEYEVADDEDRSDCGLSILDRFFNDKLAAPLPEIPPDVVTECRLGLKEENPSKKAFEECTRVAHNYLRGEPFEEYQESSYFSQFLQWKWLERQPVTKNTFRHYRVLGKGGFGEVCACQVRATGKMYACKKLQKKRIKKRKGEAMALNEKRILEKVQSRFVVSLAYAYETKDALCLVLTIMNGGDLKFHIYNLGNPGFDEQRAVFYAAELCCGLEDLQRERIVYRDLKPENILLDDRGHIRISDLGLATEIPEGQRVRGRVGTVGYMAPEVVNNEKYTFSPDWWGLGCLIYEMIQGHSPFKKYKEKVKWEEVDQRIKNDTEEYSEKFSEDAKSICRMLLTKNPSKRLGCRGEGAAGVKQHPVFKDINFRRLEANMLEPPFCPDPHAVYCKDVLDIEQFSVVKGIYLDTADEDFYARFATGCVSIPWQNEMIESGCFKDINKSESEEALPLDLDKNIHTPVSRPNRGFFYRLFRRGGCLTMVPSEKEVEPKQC
T5 sequence (P45983 whole entry): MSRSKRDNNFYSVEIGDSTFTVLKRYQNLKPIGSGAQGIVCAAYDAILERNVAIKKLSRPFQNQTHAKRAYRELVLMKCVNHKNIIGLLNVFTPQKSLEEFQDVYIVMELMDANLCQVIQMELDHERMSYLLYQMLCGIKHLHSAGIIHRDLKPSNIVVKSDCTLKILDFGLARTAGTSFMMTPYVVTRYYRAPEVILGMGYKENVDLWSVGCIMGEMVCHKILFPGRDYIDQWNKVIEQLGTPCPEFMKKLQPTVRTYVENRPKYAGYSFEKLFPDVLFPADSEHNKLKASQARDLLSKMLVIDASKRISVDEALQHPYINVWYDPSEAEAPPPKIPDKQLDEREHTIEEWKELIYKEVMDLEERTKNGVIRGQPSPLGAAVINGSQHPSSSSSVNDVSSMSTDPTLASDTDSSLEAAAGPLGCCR

## COc1cc(N2CCCC2=O)ccc1Nc1cc(NC2CCCCC2)c2c(C#N)c[nH]c2n1 [Example 64, 4-(cyclohexylamino)-6-((2-methoxy-4-(2-oxopyrrolidin-1-yl)phenyl)amino)-1H-pyrrolo[2,3-b] pyridine-3-carbonitrile]
[1]
  % Cont @ 1 μM: 4.1%
[2]
  remaining binding at 1 µM: 26%
[3]
  percent of control (kinase binding) at 1 µM: 17%
[4]
  remaining binding at 1 µM: 28%
[5]
  % Cont @ 1 μM: 0.9%
[6]
  percent of control binding at 1 µM: 30%
[7]
  % Cont @ 1 μM: 1.7%
[8]
  remaining binding at 1 µM: 28%
[9]
  remaining binding at 1 µM: 26%
[10]
  GI50: < 100 nM

## COc1cc(-c2ccnn2C)ccc1Nc1nc(NC2CCCCC2)c2c(C#N)c[nH]c2n1 [Example 7, 4-(cyclohexylamino)-2-((2-methoxy-4-(1-methyl-1H-pyrazol-5-yl)phenyl)amino)-7H-pyrrolo[2,3-d] pyrimidine-5-carbonitrile]
[1]
  % Cont @ 1 μM: 13%
[2]
  remaining binding at 1 µM: 28%
[3]
  percent of control (kinase binding) at 1 µM: 2.7%
[4]
  remaining binding at 1 µM: 28%
[5]
  % Cont @ 1 μM: 2%
[6]
  percent of control binding at 1 µM: 17%
[7]
  % Cont @ 1 μM: 4.3%
[8]
  remaining binding at 1 µM: 30%
[9]
  remaining binding at 1 µM: 29%
[10]
  GI50: < 100 nM
